This note sets out measurements from article PMC3199943, “Screening the MayBridge Rule of 3 Fragment Library for Compounds That Interact with the Trypanosoma brucei myo-Inositol-3-Phosphate Synthase and/or Show Trypanocidal Activity” (Molecular Biology International, 2011).

For assay [1], the system named is HeLa cells. Kind of assay: cells. As to conditions: for viability at 500 µM: Homo sapiens, HeLa, 65 h; for HeLa Cells Alamar Blue: Supplementary Table 1, compound 0.5 mM, percentage of controls, mean ± SD (n=3) or SE (n=2). In a few lines:
(§1)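 HeLa and A549 cells grown in DMEM with 10% FCS and 2 mM L-Glutamine were seeded at 2 × 10^4 cells/well. They were exposed to compounds for ~65 hours, then Alamar Blue was added for a further 5 hours to measure viability.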
In general terms: Alamar Blue is a resazurin reagent that responds to reducing activity.

Assay [2] addresses T1, TbINO1 (Trypanosoma brucei brucei, UniProt Q5QQ46).
T1 sequence (Q5QQ46 1-528): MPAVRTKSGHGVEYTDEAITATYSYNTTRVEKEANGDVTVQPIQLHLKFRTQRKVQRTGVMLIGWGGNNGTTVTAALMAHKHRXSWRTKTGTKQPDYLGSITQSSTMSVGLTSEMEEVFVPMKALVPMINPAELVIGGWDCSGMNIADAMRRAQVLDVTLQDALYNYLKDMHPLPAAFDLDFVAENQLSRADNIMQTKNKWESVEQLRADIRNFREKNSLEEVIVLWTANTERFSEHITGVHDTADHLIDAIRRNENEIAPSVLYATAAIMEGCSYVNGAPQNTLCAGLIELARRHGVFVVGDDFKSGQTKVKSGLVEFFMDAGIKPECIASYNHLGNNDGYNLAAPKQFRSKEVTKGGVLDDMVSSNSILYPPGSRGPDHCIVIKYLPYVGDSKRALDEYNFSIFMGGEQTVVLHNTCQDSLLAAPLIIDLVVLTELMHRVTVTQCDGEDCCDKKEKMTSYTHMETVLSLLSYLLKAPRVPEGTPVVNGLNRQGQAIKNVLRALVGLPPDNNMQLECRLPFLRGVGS
As to the kind of experiment: biochemical. In kind it is binding.

For assay [3], the system named is A549 cells. Kind of assay: Cytotoxicity against A549 cells, Alamar Blue. In kind it is cell-based. The following applies: Supplementary Table 1, compound 0.5 mM, percentage of controls (n=1); for viability at 500 µM: Homo sapiens, A549, 65 h. Summed up: as §1
Where [4] appears, read: read-out: HeLa Cells Alamar Blue.
[5] abbreviates: read-out: Tb Ino1 Tm Shift [˚C].
Setting [6] is: Supplementary Table 1, compound 1mM, mean ± SD from Boltzman curve fitting.
Setting [7] is: read-out: HeLa Cells Alamar Blue (% survival).

Like-named read-outs stand apart in the source and are kept apart here.

With `Nc1cccc(CN2CCCC2)c1` [compound 415, 3‐(pyrrolidin‐1‐ylmethyl)aniline], the viability at 500 µM in assay [1] (setting [4]) came to 57.8 ± 4.5%; in assay [3] it was 107%. The ΔTm at 1000 µM in assay [2] (setting [5]) was determined as 0.34 ± 0.06 °C.
For `Nc1ccccc1OC(F)(F)F` [compound 418, 2‐(trifluoromethoxy)aniline] the same measures were 99.1 ± 14.1%, 97.9% and 0.14 ± 0.07 °C.
For `Nc1cc(F)ccc1-n1ccnc1` [compound 420, 5‐fluoro‐2‐(1H‐imidazol‐1‐yl)aniline] the same measures were 98.2 ± 10.9%, 100% and 0.36 ± 0.07 °C.
On the same counts, the results for `OCc1ccc(N2CCCC2)cc1` [compound 427, [4‐(1‐pyrrolidinyl)phenyl]methanol] are 59.8 ± 14.4%, 64.2% and 0.35 ± 0.06 °C.
As for `OCc1cccc(N2CCCC2)c1` [compound 428, (3‐pyrrolidin‐1‐ylphenyl)methanol], the viability at 500 µM in assay [1] (setting [4]) came to 12.6 ± 5.6%; in assay [3], 81.2%. The ΔTm at 1000 µM in assay [2] (setting [5]) stood at 0.44 ± 0.07 °C.
Consider `CC(=O)c1ccc2c(c1)OCCO2` [compound 430, 1‐(2,3‐dihydro‐1,4‐benzodioxin‐6‐yl)ethan‐1‐one], for which the “HeLa Cells Alamar Blue” value in assay [1] is 91.1 ± 12.8 percentage of controls. Also, the “Tb Ino1 Tm Shift [˚C]” value in assay [2] (setting [6]) turned out to be 0.13 ± 0.08 °C. For the same molecule, the “A549 Cells Alamar Blue” value in assay [3] is recorded as 101.8 percentage of controls.
With `OCc1cccnc1N1CCCC1` [compound 440, [2‐(1‐pyrrolidinyl)‐3‐pyridinyl]methanol], the viability at 500 µM is 74.6 ± 7.5% in assay [1] (setting [4]) and 94% in assay [3]. For the same molecule, the ΔTm at 1000 µM in assay [2] (setting [5]) turned out to be 0.78 ± 0.08 °C.
Take `Nc1cccc(N2CCOCC2)c1` [compound 441, 3‐morpholin‐4‐ylaniline]: the viability at 500 µM in assay [1] (setting [4]) worked out at 77.7 ± 16.7%; in assay [3], 85%. The ΔTm at 1000 µM in assay [2] (setting [5]) was found to be 0.27 ± 0.08 °C.
On the same counts, the results for `O=C(O)c1ccc2ncsc2c1` [compound 444, 1,3‐benzothiazole‐6‐carboxylic acid] are 92 ± 9.7%, 63.5% and 0.73 ± 0.06 °C.
For `O=C(O)c1cc2cccnc2s1` [compound 445, thieno[2,3‐b]pyridine‐2‐carboxylic acid] the same measures were 88 ± 8.1%, 45.2% and 0.61 ± 0.08 °C.
For the molecule `Cn1nc(-c2cccs2)cc1N` [compound 450, 1‐methyl‐3‐(2‐thienyl)‐1H‐pyrazol‐5‐amine], the “HeLa Cells Alamar Blue” value in assay [1] is given as 89.3 ± 5.5 percentage of controls. Besides, the “Tb Ino1 Tm Shift [˚C]” value in assay [2] (setting [6]) was 1.1 ± 0.06 °C. In assay [3], the “A549 Cells Alamar Blue” value was 90.7 percentage of controls.
As for `Cc1ccc(C)c(C(O)C(=O)O)c1` (centres unmarked) [compound 454, 2‐(2,5‐dimethylphenyl)‐2‐hydroxyacetic acid], in assay [1], the “HeLa Cells Alamar Blue” value is given as 96.8 ± 12.7 percentage of controls. In addition, the “Tb Ino1 Tm Shift [˚C]” value in assay [2] (setting [6]) worked out at 0.02 ± 0.06 °C. Also, the “A549 Cells Alamar Blue” value in assay [3] was 60.8 percentage of controls.
On to `OCc1ccc(-c2ccco2)s1` [compound 458, [5‐(2‐furyl)thien‐2‐yl]methanol], for which the viability at 500 µM worked out at 94 ± 12.5% in assay [1] (setting [4]) and 73.6% in assay [3]. Further, the ΔTm at 1000 µM in assay [2] (setting [5]) was 0.6 ± 0.02 °C.
For `CC(=O)CSc1ccc(C)cc1` [compound 460, 1‐[(4‐methylphenyl)thio]acetone] the same measures were 97 ± 2.5%, 96.9% and 0.46 ± 0.07 °C.
With `Cc1nn(C)c2sc(CO)cc12` [compound 467, (1,3‐dimethyl‐1H‐thieno[2,3‐c]pyrazol‐5‐yl)methanol], in assay [1], the “HeLa Cells Alamar Blue” value is 67.5 ± 16.4 percentage of controls. The “Tb Ino1 Tm Shift [˚C]” value in assay [2] (setting [6]) stood at 0.35 ± 0.09 °C. In assay [3], the “A549 Cells Alamar Blue” value is reported as 70.7 percentage of controls.
As for `N#Cc1cc(N)ccc1-n1cccc1` [compound 471, 5‐amino‐2‐(1H‐pyrrol‐1‐yl)benzonitrile], the viability at 500 µM in assay [1] (setting [4]) is 89.3 ± 18.8%; in assay [3] it was 81.4%. In assay [2] (setting [5]), the ΔTm at 1000 µM was determined as 0.1 ± 0.08 °C.
`OCc1cc(F)cc2c1OCOC2` [compound 476, (6‐fluoro‐4H‐1,3‐benzodioxin‐8‐yl)methanol]: the “HeLa Cells Alamar Blue” value in assay [1] is 102.6 ± 9.4 percentage of controls. Further, the “Tb Ino1 Tm Shift [˚C]” value in assay [2] (setting [6]) came to 0.01 ± 0.07 °C. In addition, in assay [3], the “A549 Cells Alamar Blue” value is 78.9 percentage of controls.
With `N#Cc1cc(-c2ccccc2)oc1N` [compound 477, 2‐amino‐5‐phenyl‐3‐furonitrile], the viability at 500 µM in assay [1] (setting [4]) was 98.3 ± 18.6%; in assay [3] it was 97.4%. In addition, the ΔTm at 1000 µM in assay [2] (Supplementary Table 1, compound 1mM, mean ± SD from Boltzman curve fitting, read-out: Tb Ino1 Tm Shift [˚C]) was determined as 0.04 ± 0.1 °C.
Turning to `O=C(O)CCC(=O)c1cccs1` [compound 478, 4-oxo-4-(2-thienyl)butanoic acid], the viability at 500 µM in assay [1] (setting [4]) was determined as 106 ± 9.3%; in assay [1] (setting [7]) it was 106 ± 9.3%; in assay [3] it was 92.3%. For the same molecule, the ΔTm at 1000 µM in assay [2] (read-out: TbIno1 Tm shift [°C]) amounted to 2.58 ± 0.05 °C.
As for `O=C(O)c1cc2sccc2s1` [compound 479, thieno[3,2‐b]thiophene‐2‐carboxylic acid], the values for the viability at 500 µM in assay [1] (setting [4]) and in assay [3] were 109 ± 11.4% and 102%, respectively. In addition, the ΔTm at 1000 µM in assay [2] (setting [5]) stood at 0.21 ± 0.07 °C.
On the same counts, the results for `COc1cccc(OC)c1SC` [compound 481, 1,3‐dimethoxy‐2‐(methylthio)benzene] are 104 ± 17.6%, 103% and 0.07 ± 0.08 °C.
For `COC(=O)c1ccc(C)c(Cl)c1` [compound 484, methyl 3‐chloro‐4‐methylbenzoate] the same measures were 112 ± 12%, 120% and 0.1 ± 0.07 °C.
As for `Cc1csc2ncnc(Cl)c12` [compound 486, 4‐chloro‐5‐methylthieno[2,3‐d]pyrimidine], the viability at 500 µM amounted to 101 ± 12.2% in assay [1] (setting [4]) and 111% in assay [3]. For the same molecule, in assay [2] (setting [5]), the ΔTm at 1000 µM was 0.24 ± 0.07 °C.
For `CC1(C)C=Cc2cc(C#N)ccc2O1` [compound 487, 2,2‐dimethyl‐2H‐chromene‐6‐carbonitrile] the same measures were 112 ± 14.6%, 108% and 0 °C.
On the same counts, the results for `Cc1nccc(-c2cccc(N)c2)n1` [compound 493, 3‐(2‐methylpyrimidin‐4‐yl)aniline] are 65.9 ± 17%, 92.6% and 0.15 ± 0.07 °C.
`CCOC(=O)Cc1csc(C)n1` [compound 494, ethyl 2‐(2‐methyl‐1,3‐thiazol‐4‐yl)acetate]: the figures for the viability at 500 µM in assay [1] (setting [4]) and in assay [3] were 103 ± 17.9% and 120%, respectively. In addition, in assay [2] (setting [5]), the ΔTm at 1000 µM is 0.99 ± 0.08 °C.
Turning to `Cl.NCc1ccc2c(c1)CCO2` [compound 496, 2,3‐dihydrobenzo[b]furan‐5‐ylmethylamine hydrochloride], the “HeLa Cells Alamar Blue” value in assay [1] was 99.8 ± 15.5 percentage of controls. In addition, the “Tb Ino1 Tm Shift [˚C]” value in assay [2] (setting [6]) was found to be 0.06 ± 0.08 °C. Further, the “A549 Cells Alamar Blue” value in assay [3] is on record as 96.7 percentage of controls.
As to `Nc1cccc(Oc2ccccn2)c1` [compound 506, 3‐(pyridin‐2‐yloxy)aniline], the values for the viability at 500 µM in assay [1] (setting [4]) and in assay [3] were 99.2 ± 16.2% and 72.5%, respectively. The ΔTm at 1000 µM in assay [2] (setting [5]) was determined as 0.23 ± 0.09 °C.
For `COc1ccc(Cl)cc1C(=O)O` [compound 508, 5‐chloro‐2‐methoxybenzoic acid] the same measures were 78.4 ± 17.3%, 101% and 0.07 ± 0.07 °C.
On the same counts, the results for `N#Cc1ccccc1OC(F)(F)F` [compound 509, 2‐(trifluoromethoxy)benzonitrile] are 106 ± 16.9%, 110% and 0.01 ± 0.08 °C.
For `Cc1ccc2cc(C(=O)O)ccc2n1` [compound 510, 2‐methyl‐6‐quinolinecarboxylic acid] the same measures were 117 ± 10.8%, 126% and 0.12 ± 0.08 °C.
Regarding `O=C(O)c1cccc(-n2cccc2)c1` [compound 511, 3‐(1H‐pyrrol‐1‐yl)benzoic acid], the viability at 500 µM came out at 102 ± 12.3% in assay [1] (setting [4]) and 73% in assay [3]. Also, the ΔTm at 1000 µM in assay [2] (setting [5]) was determined as 0.6 ± 0.08 °C.
In the case of `O=C(O)c1ccccc1-n1cccc1` [compound 513, 2-(1H-pyrrol-1-yl)benzoic acid], the viability at 500 µM came to 98.5 ± 6.5% in assay [1] (setting [4]), 98.5 ± 6.5% in assay [1] (setting [7]) and 64.4% in assay [3]. In assay [2] (compound 1 mM, mean ± SD (n = 3), read-out: TbIno1 Tm shift [°C]), the ΔTm at 1000 µM worked out at 3.14 ± 0.09 °C.
